# Source: patent publication US12570642B2, “GLP-IR modulating compounds” (Gilead Sciences, Inc., priority 2021, dated 2026)
# Target: GLP-1R (Homo sapiens, UniProt P43220)
# Assay: GLP-1R Activation - cAMP Assay
# Format: cell-based
# Conditions: cAMP increase in CHO cells stably expressing GLP-1R; each compound run on one of the two cAMP assays (Assay 1 or Assay 2, not specified)
# Outline: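 cAMP rise read by HTRF after 30 min agonist exposure (10-point titration, 37 °C) in HBSS/20 mM Hepes/0.1% BSA, following 1 h pre-incubation. Cells: stable GLP-1R CHO line, 1,000/well, seeded overnight. Sigmoidal fit of response vs log concentration gives EC50.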
# Chain of GLP-1R (P43220 24-463): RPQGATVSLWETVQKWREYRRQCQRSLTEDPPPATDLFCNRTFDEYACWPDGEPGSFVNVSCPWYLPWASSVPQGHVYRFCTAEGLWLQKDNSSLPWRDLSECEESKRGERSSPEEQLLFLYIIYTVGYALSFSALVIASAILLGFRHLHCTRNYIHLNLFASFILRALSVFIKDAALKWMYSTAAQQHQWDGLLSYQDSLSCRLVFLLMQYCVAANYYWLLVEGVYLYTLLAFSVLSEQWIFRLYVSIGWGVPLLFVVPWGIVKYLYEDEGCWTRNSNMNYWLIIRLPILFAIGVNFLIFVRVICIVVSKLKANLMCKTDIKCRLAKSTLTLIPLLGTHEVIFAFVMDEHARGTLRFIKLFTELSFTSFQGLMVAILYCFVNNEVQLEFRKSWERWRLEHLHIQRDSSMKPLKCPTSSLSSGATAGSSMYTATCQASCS
row,SMILES,EC50
1,"CC1(C)COC[C@H]1n1c(Cc2c(F)cc(-c3ccc(F)c(OCc4cnc(-n5ccnn5)cc4Cl)n3)c(F)c2F)nc2ccc(C(=O)O)cc21 [Example 159, (S)-2-(4-(6-((4-chloro-6-(1H-1,2,3-triazol-1-yl)pyridin-3-yl)methoxy)-5-fluoropyridin-2-yl)-2,3,6-trifluorobenzyl)-1-(4,4-dimethyltetrahydrofuran-3-yl)-1H-benzo[d]imidazole-6-carboxylic Acid]",0.043 nM
2,"CC1(C)COC[C@H]1n1c(Cc2cc(F)c(-c3ccc(F)c(OCc4cnc(-n5ccnn5)cc4Cl)n3)cc2F)nc2ccc(C(=O)O)cc21 [Example 160, (S)-2-(4-(6-((4-chloro-6-(1H-1,2,3-triazol-1-yl)pyridin-3-yl)methoxy)-5-fluoropyridin-2-yl)-2,5-difluorobenzyl)-1-(4,4-dimethyltetrahydrofuran-3-yl)-1H-benzo[d]imidazole-6-carboxylic Acid]",0.035 nM
3,"CC1(C)COC[C@H]1n1c(Cc2ccc(-c3ccc(F)c(OCc4cnc(-n5ccnn5)cc4Cl)n3)cc2F)nc2ccc(C(=O)O)cc21 [Example 161, (S)-2-(4-(6-((4-chloro-6-(1H-1,2,3-triazol-1-yl)pyridin-3-yl)methoxy)-5-fluoropyridin-2-yl)-2-fluorobenzyl)-1-(4,4-dimethyltetrahydrofuran-3-yl)-1H-benzo[d]imidazole-6-carboxylic Acid]",0.015 nM
4,"CC1(C)COC[C@H]1n1c(Cc2cc(F)c(-c3cccc(OCc4ncc(-n5ccnn5)cc4Cl)n3)cc2F)nc2ccc(C(=O)O)cc21 [Example 162, (S)-2-(4-(6-((3-chloro-5-(1H-1,2,3-triazol-1-yl)pyridin-2-yl)methoxy)pyridin-2-yl)-2,5-difluorobenzyl)-1-(4,4-dimethyltetrahydrofuran-3-yl)-1H-benzo[d]imidazole-6-carboxylic Acid]",0.187 nM
5,"CC1(C)COC[C@H]1n1c(Cc2cc(F)c(-c3ccc(F)c(OCc4ccc(-n5ccnn5)cc4F)n3)cc2F)nc2ccc(C(=O)O)cc21 [Example 163, (S)-2-(2,5-difluoro-4-(5-fluoro-6-((2-fluoro-4-(1H-1,2,3-triazol-1-yl)benzyl)oxy)pyridin-2-yl)benzyl)-1-(4,4-dimethyltetrahydrofuran-3-yl)-1H-benzo[d]imidazole-6-carboxylic Acid]",0.039 nM
6,"Cc1cn(-c2ccc(COc3cccc(-c4cc(F)c(Cc5nc6ccc(C(=O)O)cc6n5[C@@H]5COCC5(C)C)cc4F)n3)c(F)c2)nn1 [Example 164, (S)-2-(2,5-difluoro-4-(6-((2-fluoro-4-(4-methyl-1H-1,2,3-triazol-1-yl)benzyl)oxy)pyridin-2-yl)benzyl)-1-(4,4-dimethyltetrahydrofuran-3-yl)-1H-benzo[d]imidazole-6-carboxylic Acid]",0.085 nM
7,"CC1(C)COCC1n1c(Cc2cc(F)c(-c3cccc(OCc4ccc(C#N)cc4F)n3)cc2F)nc2ccc(C(=O)O)c(F)c21 (centres unmarked) [Example 165, 2-(4-(6-((4-cyano-2-fluorobenzyl)oxy)pyridin-2-yl)-2,5-difluorobenzyl)-1-(4,4-dimethyltetrahydrofuran-3-yl)-7-fluoro-1H-benzo[d]imidazole-6-carboxylic Acid]",0.553 nM
8,"CC1(C)COCC1n1c(Cc2cc(F)c(-c3cccc(OCc4ccc(C#N)cc4F)n3)cc2F)nc2ccc(C(=O)O)c(F)c21 (centres unmarked) [Example 166, 2-(4-(6-((4-cyano-2-fluorobenzyl)oxy)pyridin-2-yl)-2,5-difluorobenzyl)-1-(4,4-dimethyltetrahydrofuran-3-yl)-7-fluoro-1H-benzo[d]imidazole-6-carboxylic Acid]",0.222 nM
9,"CC1(C)COC[C@H]1n1c(Cc2cc(F)c(-c3cccc(OCc4ccc(-n5ccnn5)cc4F)n3)cc2F)nc2ccc(C(=O)O)cc21 [Example 167, (S)-2-(2,5-difluoro-4-(6-((2-fluoro-4-(1H-1,2,3-triazol-1-yl)benzyl)oxy)pyridin-2-yl)benzyl)-1-(4,4-dimethyltetrahydrofuran-3-yl)-1H-benzo[d]imidazole-6-carboxylic Acid]",0.027 nM
10,"CC1(C)COC[C@H]1n1c(Cc2cc(F)c(-c3cccc(OCc4ccc(C(F)(F)F)cc4F)n3)cc2F)nc2ccc(C(=O)O)cc21 [Example 168, (S)-2-(2,5-difluoro-4-(6-((2-fluoro-4-(trifluoromethyl)benzyl)oxy)pyridin-2-yl)benzyl)-1-(4,4-dimethyltetrahydrofuran-3-yl)-1H-benzo[d]imidazole-6-carboxylic Acid]",0.388 nM
11,"CC1(C)COC[C@H]1n1c(Cc2cc(F)c(-c3cccc(OCc4ccc(C(F)(F)F)cc4F)n3)cc2F)nc2c(F)cc(C(=O)O)cc21 [Example 169, (S)-2-(2,5-difluoro-4-(6-((2-fluoro-4-(trifluoromethyl)benzyl)oxy)pyridin-2-yl)benzyl)-1-(4,4-dimethyltetrahydrofuran-3-yl)-4-fluoro-1H-benzo[d]imidazole-6-carboxylic Acid]",0.171 nM
12,"COc1nc(Cl)ccc1COc1cccc(-c2cc(F)c(Cc3nc4c(F)cc(C(=O)O)cc4n3C3COCC3(C)C)cc2F)n1 (centres unmarked) [Example 170, 2-(4-(6-((6-chloro-2-methoxypyridin-3-yl)methoxy)pyridin-2-yl)-2,5-difluorobenzyl)-1-(4,4-dimethyltetrahydrofuran-3-yl)-4-fluoro-1H-benzo[d]imidazole-6-carboxylic Acid]",0.227 nM
13,"CC1(C)COC[C@H]1n1c(Cc2cc(F)c(-c3cccc(OCc4cnc(-n5ccnn5)cc4Cl)n3)cc2F)nc2c(F)cc(C(=O)O)cc21 [Example 171, (S)-2-(4-(6-((4-chloro-6-(1H-1,2,3-triazol-1-yl)pyridin-3-yl)methoxy)pyridin-2-yl)-2,5-difluorobenzyl)-1-(4,4-dimethyltetrahydrofuran-3-yl)-4-fluoro-1H-benzo[d]imidazole-6-carboxylic Acid]",0.05 nM
14,N#Cc1ccc(COc2cccc(-c3cc(F)c(Cc4nc5ccc(C(=O)O)cc5n4[C@H]4COC[C@H]4CF)cc3F)n2)c(F)c1 [Example 172],0.129 nM
15,"CC1(C)COCC1n1c(Cc2cc(F)c(-c3cccc(OCc4cnc(-n5ccnn5)cc4Cl)n3)cc2F)nc2c(F)cc(C(=O)O)cc21 (centres unmarked) [Example 173, 2-(4-(6-((4-chloro-6-(1H-1,2,3-triazol-1-yl)pyridin-3-yl)methoxy)pyridin-2-yl)-2,5-difluorobenzyl)-1-(4,4-dimethyltetrahydrofuran-3-yl)-4-fluoro-1H-benzo[d]imidazole-6-carboxylic Acid]",0.018 nM
16,"CC1(C)COCC1n1c(Cc2cc(F)c(-c3cccc(OCc4cnc(-n5ccnc5)cc4Cl)n3)cc2F)nc2c(F)cc(C(=O)O)cc21 (centres unmarked) [Example 174, 2-(4-(6-((4-chloro-6-(1H-imidazol-1-yl)pyridin-3-yl)methoxy)pyridin-2-yl)-2,5-difluorobenzyl)-1-(4,4-dimethyltetrahydrofuran-3-yl)-4-fluoro-1H-benzo[d]imidazole-6-carboxylic Acid]",0.051 nM
17,"CC1(C)COCC1n1c(Cc2cc(F)c(-c3cccc(OCc4ccc(C(F)(F)F)cc4F)n3)cc2F)nc2c(F)cc(C(=O)O)cc21 (centres unmarked) [Example 175, 2-(2,5-difluoro-4-(6-((2-fluoro-4-(trifluoromethyl)benzyl)oxy)pyridin-2-yl)benzyl)-1-(4,4-dimethyltetrahydrofuran-3-yl)-4-fluoro-1H-benzo[d]imidazole-6-carboxylic Acid]",0.106 nM
18,"CC1(C)COC[C@H]1n1c(Cc2cc(F)c(-c3ccc(F)c(OCc4ccc(-n5ccnn5)cc4)n3)cc2F)nc2c(F)cc(C(=O)O)cc21 [Example 177, (S)-2-(4-(6-((4-(1H-1,2,3-triazol-1-yl)benzyl)oxy)-5-fluoropyridin-2-yl)-2,5-difluorobenzyl)-1-(4,4-dimethyltetrahydrofuran-3-yl)-4-fluoro-1H-benzo[d]imidazole-6-carboxylic Acid]",0.021 nM
19,"Cc1cc(Cc2nc3ccc(C(=O)O)cc3n2[C@@H]2COCC2(C)C)c(F)cc1-c1ccnc(OCc2ccc(C#N)cc2)n1 [Example 178, (S)-2-(4-(2-((4-cyanobenzyl)oxy)pyrimidin-4-yl)-2-fluoro-5-methylbenzyl)-1-(4,4-dimethyltetrahydrofuran-3-yl)-1H-benzo[d]imidazole-6-carboxylic Acid]",0.499 nM
20,"Cc1cc(Cc2nc3ccc(C(=O)O)cc3n2[C@@H]2COCC2(C)C)c(F)cc1-c1cccc(OCc2ccc(C#N)cc2)n1 [Example 179, (S)-2-(4-(6-((4-cyanobenzyl)oxy)pyridin-2-yl)-2-fluoro-5-methylbenzyl)-1-(4,4-dimethyltetrahydrofuran-3-yl)-1H-benzo[d]imidazole-6-carboxylic Acid]",0.064 nM
21,"Cc1cc(Cc2nc3ccc(C(=O)O)cc3n2[C@@H]2COCC2(C)C)c(F)cc1-c1ccc(F)c(OCc2ccc(C#N)cc2)n1 [Example 180, (S)-2-(4-(6-((4-cyanobenzyl)oxy)-5-fluoropyridin-2-yl)-2-fluoro-5-methylbenzyl)-1-(4,4-dimethyltetrahydrofuran-3-yl)-1H-benzo[d]imidazole-6-carboxylic Acid]",0.089 nM
22,"CC1(C)COC[C@H]1n1c(Cc2cc(F)c(-c3ccc(F)c(OCc4ccc(-n5ccnn5)cc4)n3)cc2F)nc2ccc(C(=O)O)cc21 [Example 181, (S)-2-(4-(6-((4-(1H-1,2,3-triazol-1-yl)benzyl)oxy)-5-fluoropyridin-2-yl)-2,5-difluorobenzyl)-1-(4,4-dimethyltetrahydrofuran-3-yl)-1H-benzo[d]imidazole-6-carboxylic Acid]",0.025 nM
23,"CC1(C)COC[C@H]1n1c(Cc2cc(F)c(-c3ccnc(OCc4ccc(-n5ccnn5)cc4)n3)cc2F)nc2ccc(C(=O)O)cc21 [Example 182, (S)-2-(4-(2-((4-(1H-1,2,3-triazol-1-yl)benzyl)oxy)pyrimidin-4-yl)-2,5-difluorobenzyl)-1-(4,4-dimethyltetrahydrofuran-3-yl)-1H-benzo[d]imidazole-6-carboxylic Acid]",0.178 nM
